In the NIST ThermoML archive (doi:10.1016/j.jct.2018.07.020):
Several values for one entry are separate records, joined by “and”; a condition that tells them apart may be missing. Identical values can stand only once.

What was measured:
[1] = for vapor or sublimation pressure: Transpiration method; for Normal melting temperature: DTA
[2] = Molar enthalpy of transition or fusion; settings: Crystal; DSC
[3] = Boiling temperature at pressure P; settings: Liquid, Distillation

c1ccc2[nH]ncc2c1 [1,2-diazaindene]
[1], Crystal
Settings	vapor or sublimation pressure
323.3 K	0.00069 kPa
326.3 K	0.00098 kPa
330.3 K	0.00152 kPa
331.3 K	0.00161 kPa
336.3 K	0.00272 kPa
338.3 K	0.00329 kPa
341.3 K	0.00443 kPa
343.3 K	0.00515 kPa and 0.00524 kPa
345.2 K	0.00661 kPa
346.3 K	0.00723 kPa
348.3 K	0.00826 kPa
350.3 K	0.01023 kPa
353.2 K	0.01343 kPa
356.2 K	0.01763 kPa
358.2 K	0.0211 kPa
361.2 K	0.02725 kPa

Cc1cc(C)n(C)n1 [1,3,5-trimethylpyrazole]
Settings	Molar enthalpy of transition or fusion [kcal/mol]
[2]	4.21

[1]
Settings	vapor or sublimation pressure
282 K, Crystal	0.0479 kPa
284 K, Crystal	0.0583 kPa
287 K, Crystal	0.0816 kPa
288.7 K, Crystal	0.0998 kPa
291.7 K, Crystal	0.1348 kPa
293.8 K, Crystal	0.1707 kPa
296.7 K, Crystal	0.2266 kPa
298.7 K, Crystal	0.2751 kPa and 0.2814 kPa
301.7 K, Crystal	0.376 kPa
301.9 K, Crystal	0.3776 kPa
303 K, Crystal	0.4153 kPa
303.9 K, Crystal	0.4496 kPa
306.8 K, Crystal	0.5927 kPa
315.6 K, Liquid	0.934 kPa
320.8 K, Liquid	1.297 kPa
325.7 K, Liquid	1.793 kPa
326.4 K, Liquid	1.878 kPa
330.5 K, Liquid	2.376 kPa
331.4 K, Liquid	2.585 kPa
334.1 K, Liquid	2.995 kPa
336 K, Liquid	3.202 kPa
336.4 K, Liquid	3.436 kPa
338.9 K, Liquid	3.803 kPa
341.4 K, Liquid	4.545 kPa
343.4 K, Liquid	4.993 kPa
346.4 K, Liquid	5.866 kPa

Settings	Normal melting temperature [°C]
[1], Crystal	39.4

c1ccc(Cn2cccn2)cc1 [1-benzylpyrazole]
Settings	Boiling temperature at pressure P [°C]
[3], 0.6 kPa	109

[1], Liquid
Settings	vapor or sublimation pressure
298.2 K	0.00147 kPa
310.2 K	0.0043 kPa
314.2 K	0.00615 kPa
318.2 K	0.00882 kPa
322.2 K	0.0119 kPa
326.2 K	0.0166 kPa and 0.0168 kPa
330.2 K	0.0225 kPa
334.2 K	0.0311 kPa
338.2 K	0.0421 kPa
342.2 K	0.0559 kPa
346.2 K	0.0713 kPa
350.2 K	0.0969 kPa
354.2 K	0.1228 kPa
358.2 K	0.159 kPa

CCn1cccn1 [1-ethylpyrazole]
Settings	Boiling temperature at pressure P [°C]
[3], 7.2 kPa	60

[1], Liquid
Settings	vapor or sublimation pressure
275.2 K	0.1828 kPa and 0.1776 kPa
279.2 K	0.2485 kPa
280.2 K	0.2616 kPa
283.2 K	0.3347 kPa
285.2 K	0.3759 kPa
287.2 K	0.4482 kPa
290.2 K	0.5448 kPa
291.2 K	0.5877 kPa
294.2 K	0.7128 kPa
295.2 K	0.7543 kPa
298.2 K	0.9478 kPa
300.2 K	1.073 kPa
302.2 K	1.237 kPa
303.2 K	1.3 kPa
305.2 K	1.539 kPa
306.2 K	1.63 kPa
311.2 K	2.194 kPa

Cn1cccn1 [1-methyl-1H-pyrazole]
[1], Liquid
Settings	vapor or sublimation pressure [kPa]
273.4 K	0.3007
276.4 K	0.3722
277.2 K	0.3818
278.7 K	0.4304
281.6 K	0.5225
281.8 K	0.5148
283.3 K	0.5843
284.6 K	0.6386
286.5 K	0.7077
287.8 K	0.7821
288.3 K	0.8074
290.5 K	0.9287
291.4 K	0.9834
292.5 K	1.077
294.4 K	1.195
296.5 K	1.365
297.4 K	1.456
298.8 K	1.576
302.4 K	1.989
304.7 K	2.313
306.6 K	2.528
308.2 K	2.753

c1ccc(-n2cccn2)cc1 [1-phenylpyrazole]
[1], Liquid
Settings	vapor or sublimation pressure [kPa]
294.2 K	0.00258
295.2 K	0.00284
297.2 K	0.00324
303.2 K	0.00556
309.1 K	0.00913
315 K	0.01461
320.9 K	0.02221
327 K	0.03352
332.8 K	0.05146
338.9 K	0.07723
344.9 K	0.1082
350.8 K	0.1589
354.8 K	0.2072
360.8 K	0.2918

c1cn[nH]c1 [1H-pyrazole]
[1], Crystal
Settings	vapor or sublimation pressure [kPa]
308.4 K	0.0499
310.8 K	0.0628
313.4 K	0.08
315.8 K	0.1
318.2 K	0.1258
323.3 K	0.189
328.3 K	0.287
330.9 K	0.3495
333.3 K	0.4255
335.8 K	0.5187
338.3 K	0.6278

Cc1cc(C)[nH]n1 [3,5-dimethylpyrazole]
Settings	Molar enthalpy of transition or fusion [kcal/mol]
[2]	3.85

[1], Crystal
Settings	vapor or sublimation pressure [kPa]
323.3 K	0.0136
325.9 K	0.0179
326.3 K	0.019
328.3 K	0.0224
330.3 K	0.028
333.3 K	0.0361
333.5 K	0.0368
336.3 K	0.0473
338.2 K	0.0538
343.3 K	0.0846
345.7 K	0.1033
348.3 K	0.1257
350.7 K	0.1591
350.8 K	0.1585
353.2 K	0.1955
354.3 K	0.2107
356.4 K	0.2524

Settings	Normal melting temperature [°C]
[1], Crystal	109.1

Cc1cc[nH]n1 [3-methylpyrazole]
[1], Liquid
Settings	vapor or sublimation pressure [kPa]
306.3 K	0.0252
308.7 K	0.0308
311.2 K	0.0369
313.8 K	0.0443
316.3 K	0.0568
318.2 K	0.063
321.2 K	0.0821
323.8 K	0.0978
326.2 K	0.1165
328.8 K	0.142
333.2 K	0.1924

Cc1cn[nH]c1 [4-methylpyrazole]
[1], Liquid
Settings	vapor or sublimation pressure [kPa]
296 K	0.0098
301 K	0.0149
305.9 K	0.0226
310.8 K	0.0339
315.8 K	0.0494
320.9 K	0.0719
325.7 K	0.099
330.6 K	0.1457
335.6 K	0.2071
340.6 K	0.2879
